These results are taken from patent US7037644B1, “Means and methods for monitoring non-nucleoside reverse transcriptase inhibitor antiretroviral therapy and guiding therapeutic decisions in the treatment of HIV/AIDS” (ViroLogic, Inc., priority 1998, dated 2006).

One assay deals with Y188H-RTV. The assay can be described thus: Phenotypic susceptibility assay (site directed mutant RTV). The assay is classed as cell-based, HIV-1. The note with it: Y188H alone. As to the method: (§1) The resistance test vectors containing a functional luciferase gene cassette were constructed and host cells were transfected with the resistance test vector DNA. The resistant test vectors contained patient-derived reverse transcriptase and protease sequences that were either susceptible or resistant to the antiretroviral agents, such as nucleoside reverse transcriptase inhibitors, non-nucleoside reverse transcriptase inhibitors and protease inhibitors. […] The IC50 values were determined by plotting percent drug inhibition vs. log10 drug concentration.
(§2) Host cells were seeded in 10-cm-diameter dishes and were transfected several days after plating with resistance test vector plasmid DNA and the envelope expression vector. […] HIV capsid protein (p24) levels in the harvested cell culture media were determined by an EIA method as described by the manufacturer (SIAC; Frederick, Md.). […] The inhibitory effect of the drug was determined using the following equation: % luciferase inhibition=1−(RLUluc [drug]÷RLUluc)×100 where RLUluc [drug] is the relative light unit of luciferase activity in infected cells in the presence of drug and RLUluc is the Relative Light Unit of luciferase activity in infected cells in the absence of drug. […]

In another assay the test system is Y181 C mutation variant. The note with it: Y181C selected during nevirapine monotherapy; cited from earlier work.
Assay [1] concerns the target RT with P236L substitution (Human immunodeficiency virus type 1 group M subtype B, UniProt P04585, P823L). The following applies: P236L substitution sensitizes RT; cited from earlier work.
The test system of assay [2] is RTV-964, patient 98-964 (RT Y181I). The assay can be described thus: Phenotypic susceptibility assay (patient RTV). The following applies: patient RTV pool. Format: cell-based, HIV-1. As to the method: as §1, §2
The test system of assay [3] is RTV with L100I mutation alone. Briefly: Phenotypic susceptibility assay (site directed mutant RTV). The assay is classed as cell-based, HIV-1. From the text: The resistance test vectors containing a functional luciferase gene cassette were constructed and host cells were transfected with the resistance test vector DNA. The resistant test vectors contained patient-derived reverse transcriptase and protease sequences that were either susceptible or resistant to the antiretroviral agents, such as nucleoside reverse transcriptase inhibitors, non-nucleoside reverse transcriptase inhibitors and protease inhibitors. The resistance test vector viral particles produced by transfecting the resistance test vector DNA into host cells, either in the presence or absence of protease inhibitors, were used to infect target host cells grown either in the absence of NRTI or NNRTI or in the presence of increasing concentrations of the drug. The amount of luciferase activity produced in infected target host cells in the presence of drug was compared to the amount of luciferase produced in infected target host cells in the absence of drug. Drug resistance was measured as the amount of drug required to inhibit by 50% the luciferase activity detected in the absence of drug (inhibitory concentration 50%, IC50). The IC50 values were determined by plotting percent drug inhibition vs. log10 drug concentration.
Host cells were seeded in 10-cm-diameter dishes and were transfected several days after plating with resistance test vector plasmid DNA and the envelope expression vector. Transfections were performed using a calcium-phosphate precipitation procedure. The cell culture media containing the DNA precipitate was replaced with fresh medium, from one to 24 hours, after transfection. Cell culture media containing resistance test vector viral particles was harvested one to four days after transfection and was passed through a […] filter before being stored at […]. HIV capsid protein (p24) levels in the harvested cell culture media were determined by an EIA method as described by the manufacturer (SIAC; Frederick, Md.). Before infection, target cells (293 and 293/T) were plated in cell culture media. Control infections were performed using cell culture media from mock transfections (no DNA) or transfections containing the resistance test vector plasmid DNA without the envelope expression plasmid. One to three or more days after infection the media was removed and cell lysis buffer (Promega) was added to each well. Cell lysates were assayed for luciferase activity (FIG. 3). The inhibitory effect of the drug was determined using the following equation: % luciferase inhibition=1−(RLUluc [drug]÷RLUluc)×100 where RLUluc [drug] is the relative light unit of luciferase activity in infected cells in the presence of drug and RLUluc is the Relative Light Unit of luciferase activity in infected cells in the absence of drug. IC50 values were obtained from the sigmoidal curves that were generated from the data by plotting the percent inhibition of luciferase activity vs. the log10 drug concentration. The drug inhibition curves are shown in (FIG. 3).
The mutations Y188L, L100I and K103N were introduced alone and in combinationn into resistance test vectors using the mega-primer method for site-directed mutagenesis (Sakar and Sommar, Ibid.).

SMILES strings stand for the structures.

With `Cc1ccnc2c1NC(=O)c1cccnc1N2C1CC1` [nevirapine], the entries for the “loss of susceptibility (fold, IC50) vs wild type control RTV” value (in the assay with Y188H-RTV; in assay [3]) were 3.5 fold and 3 fold, respectively. The reduction in sensitivity with Y181 C mutation variant is listed as 100 fold. Also, the “reduction of IC50” value in assay [1] is on record as 7- to 10 fold. The “decrease in susceptibility (fold, IC50)” value in assay [2] came to 750 fold.
